≈ marks a conversion by molar mass, not a printed value.
Tests used:
[1] = test system: Mycobacterium avium Strain NIHJ 1605; experiment: In vitro antibacterial activity (1): minimum inhibitory concentration, broth dilution; format: cell-based; details: NIHJ1605, 144 h; Mycobacterium avium NIHJ 1605; Middlebrook 7H9 broth, aerobic culture at 37° C. for 6 days
M. tuberculosis Kato = experiment: In vitro antibacterial activity (2): MIC by broth dilution method; format: cell-based; details: Mycobacterium tuberculosis; Middlebrook 7H9 broth, 35° C. for 10–21 days; read-out: MICs against Mycobacterium tuberculosis, M. tuberculosis Kato
Description: The minimum inhibitory concentration (MICs) of the test compounds against Mycobacterium tuberculosis was determined by the broth dilution method. After the solution of a test compound in dimethyl sulfoxide (DMSO) or distilled water was diluted with 50% aqueous acetone or distilled water, each two-fold dilution of the solution was carried out with Middlebrook 7H9 broth containing 0.05% Tween 80, 0.2% dextrose and Middlebrook ADC enrichment. […] The microorganisms cultivated on Ogawa medium were suspended uniformly in Middlebrook 7H9 broth containing 0.05% Tween 80, 0.2% dextrose and Middlebrook ADC enrichment. The microorganism solution was adjusted to about 1×10^7 CFU/mL using a spectrophotometer. The resulting microorganism solution was further diluted with Middlebrook 7H9 broth containing 0.05% Tween 80, 0.2% dextrose and Middlebrook ADC enrichment (final viable cell count: about 1×10^5 CFU/mL). After mixing the diluted microorganism solution with the diluted test compound solution in the test tube, cultivation was performed at 35° C. for 10–21 days. When significant growth was found in the control test tube with no test compound, the MIC was determined as the minimum concentration of the compound at which no colony was recognized macroscopically in the test tube.

Row | SMILES | MIC [1] [mg/L] | MIC (M. tuberculosis Kato) [mg/L]
1 | CO[C@H]1[C@@H](O)[C@H](n2ccc(=O)[nH]c2=O)O[C@@H]1[C@@H](O[C@H]1OC(C(=O)N[C@H]2CCCCNC2=O)=C[C@H](O)[C@@H]1O)C(N)=O [Capuramycin, capuramycin, reference compound] | 8 (≈ 14 µM) | –
2 | CO[C@H]1[C@@H](O)[C@H](n2ccc(=O)[nH]c2=O)O[C@@H]1[C@@H](O[C@H]1OC(C(=O)Nc2ccc(F)c(F)c2)=C[C@H](O)[C@@H]1O)C(N)=O [Exemplification Compound No. 3712] | 2 (≈ 3.51 µM) | 1 (≈ 1.75 µM)

From US7157442B2, “Antibacterial compound” (Sankyo Company, Limited, priority 1999, dated 2007)
